The structures appear in SMILES notation. ≈ marks a conversion by molar mass, not a printed value.

The record followed here is patent publication US6602511B2, “Microemulsions for use as vehicles for administration of active compounds” (AstraZeneca AB, priority 1995, dated 2003).

Data set [1] is described as follows: Solubility of sparingly soluble substances in water, microemulsion and PEG 400 (50%).
Procedure: (§1) Different amounts of the substances were added to 1 ml samples of the microemulsion placed in glass vials. The samples were rotated for 48 hours to allow a complete wetting of the solid substance. The samples were than kept in a waterbath at 25° C. for at least one week before inspection. The samples were inspected for any solid substance or phase separation and the maximum solubility was defined as the range between the last sample in each series without any trace of solids or phase separation, and the first sample with remaining and undissolved substance or a phase separation.
The next data set in a line: physchem. Particulars: aqueous with cosolvent or surfactant or cyclodextrin.

Procedure for physchem: as §1

What is called solubility is the concentration that dissolves in the medium under given conditions. Higher therefore signals much dissolved substance. Regarding `CCOc1c(C)cc2c(c1C)[C@@]1(C)Cc3ccccc3[C@@]1(C)N2` (relative stereo) [The indeno indole, cis-4b,5,9b,10-tetrahydro-4b,7,9,9b-tetramethyl-8-ethoxy-indeno(1,2-b)indole], in data set [1] (PEG 400 (50%) solution, aqueous with cosolvent or surfactant or cyclodextrin), the solubility was 200 µg/mL (≈ 651 µM). The Sol. in water in data set [1] (in water) worked out at 2.0 mg/L. Further, in data set [1] (microemulsion 1a, 25° C., at least one week, range between last clear and first undissolved sample), the “sol. in microemulsion 1a” value fell in the range of 40000 to 50000 mg/L. In addition, the “sol. in microemulsion 1b” value in data set [1] (microemulsion 1b, 25° C., at least one week, range between last clear and first undissolved sample) was in the range of 60000 to 75000 mg/L. Further, the “amount possible to administrate using the microemulsion compared to a 50% solution PEG 400” value in data set [1] (microemulsion vs 50% solution PEG 400) is listed as “over 100 times”.
As for `CCOC(=O)C1=C(C)NC(C)=C(C(=O)OC)C1c1cccc(Cl)c1Cl` (stereo not drawn) [Felodipine, ethyl methyl 4-(2,3-dichlorophenyl)-1,4-dihydro-2,6-dimethyl-3,5-pyridinedicarboxylate], in “physchem”, the concentration in solution (solubility) came to 700 µg/mL (≈ 1820 µM).
